Results as given in patent US20090227507A1, “Angiotensin (1-7) Dosage Forms and Uses Thereof” (UNIVERSITY OF SOUTHERN CALIFORNIA, priority 2008, published 2009).

Columns and labels:
Assay type in all cases: in vivo, human
[1] = system: CD3 cells in peripheral blood; assay: Flow cytometry of peripheral blood, CD3 lymphocytes; USB003 SC once daily for 7 days in healthy men; parameters: key to Subjects with shift, Absolute CD3, N-L (normal to low) / Subjects with shift, Absolute CD3, N-H (normal to high) / Subjects with shift, Absolute CD3, L-N (low to normal) / Subjects with shift, Absolute CD3, H-N (high to normal): — signifies subject with no shift from baseline; settings: for CD3, Absolute, Mean at Baseline: Baseline (Day 1)
Procedure: (§1) • Single-center, randomized, double-blind, placebo-controlled, 2 cohort dose-escalation trial of once daily dosing over a 7-day period (7 doses total): • Cohort 1: 2 subjects treated with placebo and 8 subjects treated with 200 μg/kg USB003 (A(1-7)) • Cohort 2: 2 subjects treated with placebo and 8 subjects treated with 300 μg/kg USB003 • For each cohort, there was a Screening Period, Treatment Phase, Follow-up Period, and Study Termination or Early Withdrawal Day. Subjects were confined to the study unit during the Treatment Phase. • Cohort 2 was treated approximately 1 week after completion of the Treatment Phase for Cohort 1 to allow time for the assessment of safety and tolerability in the first cohort.
(§2) Pharmacological Effect: The following evaluations (under efficacy and safety in the protocol) were performed: • Effects on the number of mature blood cells: • 1. CBC (with differential), platelet count, reticulocyte count. • Effects on early hematopoietic progenitor cells and mature lymphocyte subsets in the periphery: • 1. Flow cytometry to evaluate frequency of peripheral blood progenitor cells (eg, CD34^+) and lymphocyte subsets (eg, CD3, CD4, CD8) in peripheral blood. • 2. Collection of blood for later possible culture for progenitor cells (eg, colony forming units-granulocyte/macrophage [CFU-GM]) to evaluate potential effects on CD34^+ hematopoietic progenitor cells in peripheral blood. • 3.
(§3) The effect of USB003 on the number of mature blood cells was assessed by the complete blood count with differential, platelet and reticulocyte counts. The effects on early hematopoietic progenitor cells and mature lymphocyte subsets in the periphery were assessed by flow cytometry. In addition, blood was collected and processed to enable culture of progenitors at a later time.
(§4) Red blood cell (RBC) count, RBC indices, white blood cell count (WBC) with differential, reticulocyte count, platelet count, hemoglobin (Hb), hematocrit (Hct), plasma hemoglobin, peripheral flow cytometry, including CD34^+, flow cytometry for enumeration of CD3, CD4, and CD8 lymphocytes, and culture for progenitor cells in peripheral blood including colony-forming units-granulocyte/macrophage (CFU-GM).

[2] = system: CD34+ cells in peripheral blood; assay: Flow cytometry of peripheral blood, CD34+ progenitor cells; USB003 SC once daily for 7 days in healthy men; parameters: key to Subjects with shift, Absolute CD34, N-L (normal to low) / Subjects with shift, Absolute CD34, N-H (normal to high) / Subjects with shift, Absolute CD34, L-N (low to normal) / Subjects with shift, Absolute CD34, H-N (high to normal): — signifies subject with no shift from baseline; settings: for CD34^+, Absolute, Mean at Baseline: Baseline (Day 1)
Procedure: as §1, §2, §3, §4

[3] = Urinalysis with microscopic examination of sediment in healthy men; settings: Subject 011, 200 μg/kg
Procedure: Laboratory measurements were conducted by a local clinical laboratory.
Blood, urobilinogen, ketones, glucose, protein, microscopic examination of sediment, sodium, and potassium.

Asp-Arg-Val-Tyr-Ile-His-Pro [USB003]
CD3, Absolute, Mean at Baseline ([1]; 200 μg/kg): 1732.3 cells/μL | Subjects with shift, Absolute CD3, H-N (high to normal) ([1]; 200 μg/kg, Baseline to Day 8): 1 | Subjects with shift, Absolute CD3, L-N (low to normal) ([1]; 200 μg/kg, Baseline to Day 8): — | Subjects with shift, Absolute CD3, N-H (normal to high) ([1]; 200 μg/kg, Baseline to Day 8): — | Subjects with shift, Absolute CD3, N-L (normal to low) ([1]; 200 μg/kg, Baseline to Day 8): — | Subjects with shift, Absolute CD3, H-N (high to normal) ([1]; 200 μg/kg, Baseline to Day 20): 1 | Subjects with shift, Absolute CD3, L-N (low to normal) ([1]; 200 μg/kg, Baseline to Day 20): — | Subjects with shift, Absolute CD3, N-H (normal to high) ([1]; 200 μg/kg, Baseline to Day 20): — | Subjects with shift, Absolute CD3, N-L (normal to low) ([1]; 200 μg/kg, Baseline to Day 20): — | CD3, Absolute, Mean Change from Baseline ([1]; 200 μg/kg, Day 3): −115.8 cells/μL | CD3, Absolute, Mean Change from Baseline ([1]; 200 μg/kg, Day 5): 70.6 cells/μL | CD3, Absolute, Mean Change from Baseline ([1]; 200 μg/kg, Day 7): 53.9 cells/μL | CD3, Absolute, Mean Change from Baseline ([1]; 200 μg/kg, Day 8): −32.0 cells/μL | CD3, Absolute, Mean Change from Baseline ([1]; 200 μg/kg, Day 11): 122.0 cells/μL | CD3, Absolute, Mean Change from Baseline ([1]; 200 μg/kg, Day 14): 60.0 cells/μL | CD3, Absolute, Mean Change from Baseline ([1]; 200 μg/kg, Day 17): −121.1 cells/μL | CD3, Absolute, Mean Change from Baseline ([1]; 200 μg/kg, Day 20): −63.6 cells/μL | increase in CD3 (pan T cell marker) during study drug administration ([1]; 300 μg/kg/day, rapidly diminished after cessation of treatment): 15-20% | CD3, Absolute, Mean at Baseline ([1]; 300 μg/kg): 1285.5 cells/μL | Subjects with shift, Absolute CD3, H-N (high to normal) ([1]; 300 μg/kg, Baseline to Day 8): — | Subjects with shift, Absolute CD3, L-N (low to normal) ([1]; 300 μg/kg, Baseline to Day 8): — | Subjects with shift, Absolute CD3, N-H (normal to high) ([1]; 300 μg/kg, Baseline to Day 8): — | Subjects with shift, Absolute CD3, N-L (normal to low) ([1]; 300 μg/kg, Baseline to Day 8): — | Subjects with shift, Absolute CD3, H-N (high to normal) ([1]; 300 μg/kg, Baseline to Day 20): — | Subjects with shift, Absolute CD3, L-N (low to normal) ([1]; 300 μg/kg, Baseline to Day 20): — | Subjects with shift, Absolute CD3, N-H (normal to high) ([1]; 300 μg/kg, Baseline to Day 20): — | Subjects with shift, Absolute CD3, N-L (normal to low) ([1]; 300 μg/kg, Baseline to Day 20): — | CD3, Absolute, Mean Change from Baseline ([1]; 300 μg/kg, Day 3): 167.8 cells/μL | CD3, Absolute, Mean Change from Baseline ([1]; 300 μg/kg, Day 5): 159.8 cells/μL | CD3, Absolute, Mean Change from Baseline ([1]; 300 μg/kg, Day 7): 229.8 cells/μL | CD3, Absolute, Mean Change from Baseline ([1]; 300 μg/kg, Day 8): 67.1 cells/μL | CD3, Absolute, Mean Change from Baseline ([1]; 300 μg/kg, Day 11): −63.5 cells/μL | CD3, Absolute, Mean Change from Baseline ([1]; 300 μg/kg, Day 14): 0.3 cells/μL | CD3, Absolute, Mean Change from Baseline ([1]; 300 μg/kg, Day 17): −87.9 cells/μL | CD3, Absolute, Mean Change from Baseline ([1]; 300 μg/kg, Day 20): 56.9 cells/μL | CD34^+, Absolute, Mean at Baseline ([2]; 200 μg/kg): 2.50 cells/μL | Subjects with shift, Absolute CD34, H-N (high to normal) ([2]; 200 μg/kg, Baseline to Day 8): — | Subjects with shift, Absolute CD34, L-N (low to normal) ([2]; 200 μg/kg, Baseline to Day 8): — | Subjects with shift, Absolute CD34, N-H (normal to high) ([2]; 200 μg/kg, Baseline to Day 8): — | Subjects with shift, Absolute CD34, N-L (normal to low) ([2]; 200 μg/kg, Baseline to Day 8): — | Subjects with shift, Absolute CD34, H-N (high to normal) ([2]; 200 μg/kg, Baseline to Day 20): — | Subjects with shift, Absolute CD34, L-N (low to normal) ([2]; 200 μg/kg, Baseline to Day 20): — | Subjects with shift, Absolute CD34, N-H (normal to high) ([2]; 200 μg/kg, Baseline to Day 20): — | Subjects with shift, Absolute CD34, N-L (normal to low) ([2]; 200 μg/kg, Baseline to Day 20): — | CD34^+, Absolute, Mean Change from Baseline ([2]; 200 μg/kg, Day 3): 0.23 cells/μL | CD34^+, Absolute, Mean Change from Baseline ([2]; 200 μg/kg, Day 5): 0.61 cells/μL | CD34^+, Absolute, Mean Change from Baseline ([2]; 200 μg/kg, Day 7): 1.11 cells/μL | CD34^+, Absolute, Mean Change from Baseline ([2]; 200 μg/kg, Day 8): 0.33 cells/μL | CD34^+, Absolute, Mean Change from Baseline ([2]; 200 μg/kg, Day 11): 0.13 cells/μL | CD34^+, Absolute, Mean Change from Baseline ([2]; 200 μg/kg, Day 14): 0.61 cells/μL | CD34^+, Absolute, Mean Change from Baseline ([2]; 200 μg/kg, Day 17): −0.40 cells/μL | CD34^+, Absolute, Mean Change from Baseline ([2]; 200 μg/kg, Day 20): −0.46 cells/μL | CD34^+, Absolute, Mean at Baseline ([2]; 300 μg/kg): 2.55 cells/μL | Subjects with shift, Absolute CD34, H-N (high to normal) ([2]; 300 μg/kg, Baseline to Day 8): — | Subjects with shift, Absolute CD34, L-N (low to normal) ([2]; 300 μg/kg, Baseline to Day 8): — | Subjects with shift, Absolute CD34, N-H (normal to high) ([2]; 300 μg/kg, Baseline to Day 8): — | Subjects with shift, Absolute CD34, N-L (normal to low) ([2]; 300 μg/kg, Baseline to Day 8): — | Subjects with shift, Absolute CD34, H-N (high to normal) ([2]; 300 μg/kg, Baseline to Day 20): — | Subjects with shift, Absolute CD34, L-N (low to normal) ([2]; 300 μg/kg, Baseline to Day 20): — | Subjects with shift, Absolute CD34, N-H (normal to high) ([2]; 300 μg/kg, Baseline to Day 20): — | Subjects with shift, Absolute CD34, N-L (normal to low) ([2]; 300 μg/kg, Baseline to Day 20): — | CD34^+, Absolute, Mean Change from Baseline ([2]; 300 μg/kg, Day 3): 1.80 cells/μL | CD34^+, Absolute, Mean Change from Baseline ([2]; 300 μg/kg, Day 5): 0.56 cells/μL | CD34^+, Absolute, Mean Change from Baseline ([2]; 300 μg/kg, Day 7): −0.01 cells/μL | CD34^+, Absolute, Mean Change from Baseline ([2]; 300 μg/kg, Day 8): 0.88 cells/μL | CD34^+, Absolute, Mean Change from Baseline ([2]; 300 μg/kg, Day 11): −0.74 cells/μL | CD34^+, Absolute, Mean Change from Baseline ([2]; 300 μg/kg, Day 14): −0.41 cells/μL | CD34^+, Absolute, Mean Change from Baseline ([2]; 300 μg/kg, Day 17): −0.31 cells/μL | CD34^+, Absolute, Mean Change from Baseline ([2]; 300 μg/kg, Day 20): −0.35 cells/μL | change in the number of CD34+ cells in the peripheral blood ([2]; last day of treatment, not observed 12 days after administration): dose-related change | Urine Glucose High/Low Normal/Abnormal ([3]; Day 1): Abnormal | Urine Glucose Significance ([3]; Day 1): CS AE | Urine Glucose Value ([3]; Day 1): +1 | Urine Glucose High/Low Normal/Abnormal ([3]; Day 3): N | Urine Glucose Value ([3]; Day 3): neg
